Data on 30 molecules can be found in patent publication US20260049068A1, “Substituted Tetrazolyl Compounds Useful as T Cell Activators” (BRISTOL-MYERS SQUIBB COMPANY, priority 2022, published 2026).

For orientation: EC50 means the concentration at which the effect is half-maximal. Usually IC50 stands for the point on the concentration scale where inhibition reaches its midpoint.

Experiment [1] concerns the target DGKα-YFP in Jurkat cells (Homo sapiens (Human), UniProt P23743). Description: In vitro DGKα translocation assay. The class given is cell-based. The settings on record: 1 hour at 37° C., top concentration 10 μM, read-out: DGKalpha Translocation EC50. An excerpt: Jurkat cells were transduced with lentiviral constructs overexpressing DGKα-YFP (N-terminal tagged), selected by puromycin, and were FACs sorted to establish stable lines expressing each isoform (Jurkat-DGKα-YFP=BXA-212700-01-001, Jurkat-DGKz-YFP=BXA-212701-01-001). Cell lines were maintained in growth media (RPMI supplemented with 10% FBS and pen/strep). All translocation assays were run in assay media (RPMI supplemented with 10% FBS and no antibiotics).
For translocation assays cells were plated onto Perkin Elmer CellCarrier-384 Ultra Microplates (Perkin Elmer cat #6057500) at a density of 30,000 cells/well, in a volume of 40 μL of assay media. Compounds were then transferred to the cells by an Echo Acoustic Liquid Handler (Echo 655). […] Treated cells were then incubated at 37° C. for 1 hour. Cells were then fixed with 4% formaldehyde (Thermo cat #28906) for 15 minutes, centrifuged briefly to increase cell retention (250 rpm for 5 minutes), and then washed 3× with 50 μL PBS. Cells were then stained with Hoechst, and washed 2× with 50 ul PBS. Next, 50 μL PBS was added to each well, plates were sealed, and plates were imaged on an Opera Phenix High Content screening system. Imaging was done with the 40× water objective. The YFP channel was set at 100% power for […], 10 regions/well were imaged and analyzed. Data analysis was done with Columbus Image Analysis software (Perk-in Elmer).

Experiment [2] deals with Near full length human DGKα(S9-S727) (Homo sapiens (Human), UniProt P23743). Description: DGKα (Near Full Length) ADP Glo assay. It is filed as biochemical. The note with it: extruded liposomes 5% or 10% DAG, 150 μM ATP, 5 nM enzyme; read-out: Near Full Length DGKalpha ADPGLO IC50. The procedure: The reactions were carried out at 150 μM ATP.
Near full length human DGKα(S9-S727), sequence (P23743 9-727): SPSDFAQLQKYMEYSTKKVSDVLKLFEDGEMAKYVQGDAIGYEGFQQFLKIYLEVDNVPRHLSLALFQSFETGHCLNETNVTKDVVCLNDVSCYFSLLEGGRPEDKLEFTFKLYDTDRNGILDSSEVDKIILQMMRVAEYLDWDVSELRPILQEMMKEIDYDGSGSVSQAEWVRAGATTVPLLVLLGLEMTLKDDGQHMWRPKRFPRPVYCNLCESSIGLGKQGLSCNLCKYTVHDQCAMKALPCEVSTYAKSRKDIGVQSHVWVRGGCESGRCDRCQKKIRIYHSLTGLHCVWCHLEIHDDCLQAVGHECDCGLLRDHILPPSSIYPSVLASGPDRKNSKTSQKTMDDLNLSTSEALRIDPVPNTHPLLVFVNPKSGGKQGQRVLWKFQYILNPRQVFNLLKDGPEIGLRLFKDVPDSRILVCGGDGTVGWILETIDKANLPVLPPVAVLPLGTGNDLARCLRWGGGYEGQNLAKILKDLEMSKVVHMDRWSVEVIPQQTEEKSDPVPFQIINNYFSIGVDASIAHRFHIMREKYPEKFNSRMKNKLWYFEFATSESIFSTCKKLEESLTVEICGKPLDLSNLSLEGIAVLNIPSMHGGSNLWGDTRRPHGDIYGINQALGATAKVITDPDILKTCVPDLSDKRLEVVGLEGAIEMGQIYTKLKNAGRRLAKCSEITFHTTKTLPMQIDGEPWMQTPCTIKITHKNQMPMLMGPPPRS
Luminescence was recorded using an EnVision microplate reader.

In experiment [3] the target is Full length human DGKα (Homo sapiens (Human), UniProt P23743).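 Note: ADP-Glo luminescence assay of ADP formed by 5 nM full-length DGKα on extruded PS/DAG/PC liposomes with 150 µM ATP, 1 h reaction, 11-point inhibitor titration.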
Full length human DGKα, sequence (P23743 other isoform, or with tags, fused parts or gaps): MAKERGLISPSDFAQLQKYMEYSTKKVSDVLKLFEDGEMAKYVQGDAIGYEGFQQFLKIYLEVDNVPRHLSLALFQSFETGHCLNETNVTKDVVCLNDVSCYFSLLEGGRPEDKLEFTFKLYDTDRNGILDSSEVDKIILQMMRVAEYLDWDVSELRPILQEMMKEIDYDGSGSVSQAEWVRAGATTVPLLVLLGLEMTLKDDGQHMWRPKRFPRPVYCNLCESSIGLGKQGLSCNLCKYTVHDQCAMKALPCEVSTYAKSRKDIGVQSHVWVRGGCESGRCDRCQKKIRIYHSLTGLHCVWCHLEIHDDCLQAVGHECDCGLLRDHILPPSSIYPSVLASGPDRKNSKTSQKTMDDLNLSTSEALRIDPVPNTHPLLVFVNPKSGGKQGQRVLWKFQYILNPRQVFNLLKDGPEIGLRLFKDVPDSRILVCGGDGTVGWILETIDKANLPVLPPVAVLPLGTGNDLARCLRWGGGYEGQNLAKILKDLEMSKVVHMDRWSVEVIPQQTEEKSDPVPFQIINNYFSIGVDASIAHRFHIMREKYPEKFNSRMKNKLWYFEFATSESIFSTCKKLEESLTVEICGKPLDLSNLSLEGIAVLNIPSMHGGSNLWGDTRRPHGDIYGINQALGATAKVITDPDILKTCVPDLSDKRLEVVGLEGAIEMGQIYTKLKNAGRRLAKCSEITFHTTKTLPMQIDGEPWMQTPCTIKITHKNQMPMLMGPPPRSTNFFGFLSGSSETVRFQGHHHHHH
Procedure: The DGKα (Full Length and Near Full Length) ADP Glo assays were performed using an extruded liposome prep at either 5% DAG or 10% DAG. The Enzymatic reactions were carried out in 50 mM MOPS pH 7.5, 100 mM NaCl, 10 mM MgCl2, 1 μM CaCl2, and 1 mM DTT (assay buffer). The lipid substrate concentrations were 1.9 mM PS, either 0.25 mM DAG (5% liposome prep) or 0.5 mM DAG (10% liposome prep), and 2.7 mM PC for the extruded liposome reactions. The reactions were carried out at 150 μM ATP. The enzyme concentrations for the DGKα(Near Full Length) and DGKα(FL) were 5 nM.
The compound inhibition studies were carried out as follows: 25 nL droplets of each test compound (11 point, 3-fold dilution series for each compound) solubilized in DMSO were transferred to wells of a white 1536 well plate (Corning 3725). A 5 mL enzyme/substrate (substrate being the 5× or 10× liposome preparation) solution at 2× final reaction concentrations was prepared by combining 5 ml of the extruded liposome preparation with 10 nM (2× final) DGKα(Near Full Length) or DGKα(Full Length) prepared as described below) and incubated at room temperature for 10 minutes. Next, 1 μL of the 2× enzyme/substrate solution was added to wells containing the test compound and reactions were initiated with the addition of 1 μL 300 uM ATP. Substrate only was added to DMSO only wells for background measurements. The reactions were allowed to proceed for 1 hr, after which 2 μL Glo Reagent (Promega V9101) was added and incubated for 40 minutes. Next, 4 μL Kinase Detection Reagent was added and incubated for 30 minutes. Luminescence was recorded using an EnVision microplate reader. […] The compounds were evaluated at 11 concentrations to determine IC50.

Some results are limits rather than exact numbers.

DGKα-YFP in Jurkat cells, sequence (P23743 whole entry, canonical isoform): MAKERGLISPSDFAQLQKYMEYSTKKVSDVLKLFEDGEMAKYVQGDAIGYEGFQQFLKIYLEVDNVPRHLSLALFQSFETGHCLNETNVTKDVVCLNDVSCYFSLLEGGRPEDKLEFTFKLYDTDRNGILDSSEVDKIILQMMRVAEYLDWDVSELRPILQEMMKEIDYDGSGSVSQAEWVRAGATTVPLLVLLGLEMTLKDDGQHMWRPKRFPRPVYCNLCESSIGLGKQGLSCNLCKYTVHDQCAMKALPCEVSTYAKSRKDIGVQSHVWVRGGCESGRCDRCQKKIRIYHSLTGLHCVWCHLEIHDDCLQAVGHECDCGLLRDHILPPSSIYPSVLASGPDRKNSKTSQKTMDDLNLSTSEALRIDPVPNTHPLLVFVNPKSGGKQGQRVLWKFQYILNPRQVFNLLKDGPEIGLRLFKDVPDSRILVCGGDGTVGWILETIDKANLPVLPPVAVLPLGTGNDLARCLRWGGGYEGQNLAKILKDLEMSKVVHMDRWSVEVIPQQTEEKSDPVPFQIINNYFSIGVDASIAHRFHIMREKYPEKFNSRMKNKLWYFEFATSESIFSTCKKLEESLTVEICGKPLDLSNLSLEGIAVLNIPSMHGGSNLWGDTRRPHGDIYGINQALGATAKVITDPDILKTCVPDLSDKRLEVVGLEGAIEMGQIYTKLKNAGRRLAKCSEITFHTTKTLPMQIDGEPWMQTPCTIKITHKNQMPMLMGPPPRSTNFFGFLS

With `CC1CCC(N(C)Cc2nnnn2-c2cccc([N+](=O)[O-])c2)CC1` (stereo not shown) [Example 2, N,4-dimethyl-N-((1-(3-nitrophenyl)-1H-tetrazol-5-yl)methyl)cyclohexan-1-amine], in experiment [1], the EC50 worked out at 300 nM.
Turning to `CN(Cc1nnnn1-c1ccc(C(F)(F)F)c(C#N)c1)C1CCCCC1` [Example 4, 5-(5-((cyclohexyl(methyl)amino)methyl)-1H-tetrazol-1-yl)-2-(trifluoromethyl)benzonitrile], the half-maximal inhibitory concentration (IC50) in experiment [2] stood at 280 nM; in experiment [3] it was 0.027 µM. Also, the concentration for a half-maximal effect (EC50) in experiment [1] is 820 nM.
In the case of `CCCCN(Cc1nnnn1-c1ccc(Cl)c(C#N)c1)C1CCCCC1` [Example 5, 5-(5-((butyl(cyclohexyl)amino)methyl)-1H-tetrazol-1-yl)-2-chlorobenzonitrile], the IC50 in experiment [2] worked out at 1400 nM; in experiment [3] it was 1.1 µM. Besides, the 50% effective concentration (EC50) in experiment [1] turned out to be 1200 nM.
The like results for `C=CCN(Cc1nnnn1-c1ccc(Cl)c(C#N)c1)C1CCCCC1` [Example 6, 5-(5-((allyl(cyclohexyl)amino)methyl)-1H-tetrazol-1-yl)-2-chlorobenzonitrile] were, in that order, 100 nM, 0.11 µM and 190 nM.
The like results for `N#Cc1cc(-n2nnnc2CN(CCO)C2CCCCC2)ccc1Cl` [Example 7, 2-chloro-5-(5-((cyclohexyl(2-hydroxyethyl)amino)methyl)-1H-tetrazol-1-yl)benzonitrile] were, in that order, 3400 nM, 4.7 µM and more than 10000 nM.
On the same counts, the results for `CCCN(Cc1nnnn1-c1ccc(Cl)c(C#N)c1)C1CCCCC1` [Example 8, 2-chloro-5-(5-((cyclohexyl(propyl)amino)methyl)-1H-tetrazol-1-yl)benzonitrile] are 2100 nM, 1.5 µM and 350 nM.
As to `CC(C)CN(C)Cc1nnnn1-c1ccc(Cl)c(C#N)c1` [Example 9, 2-chloro-5-(5-((isobutyl(methyl)amino)methyl)-1H-tetrazol-1-yl)benzonitrile], the IC50 in experiment [2] stood at 3200 nM; in experiment [3], 5.3 µM. In experiment [1], the half-maximal effective concentration (EC50) was found to be 1200 nM.
The like results for `N#Cc1cc(-n2nnnc2CN(CC2CC2)C2CCCCC2)ccc1Cl` [Example 10, 2-chloro-5-(5-((cyclohexyl(cyclopropylmethyl)amino)methyl)-1H-tetrazol-1-yl)benzonitrile] were, in that order, 240 nM, 0.25 µM and 630 nM.
The like results for `CC(C)N(C)Cc1nnnn1-c1ccc(Cl)c(C#N)c1` [Example 11, 2-chloro-5-(5-((isopropyl(methyl)amino)methyl)-1H-tetrazol-1-yl)benzonitrile] were, in that order, 8600 nM, 8.8 µM and more than 10000 nM.
On the same counts, the results for `CC(C)N(Cc1nnnn1-c1ccc(Cl)c(C#N)c1)C1CCCCC1` [Example 12, 2-chloro-5-(5-((cyclohexyl(isopropyl)amino)methyl)-1H-tetrazol-1-yl)benzonitrile] are 11000 nM, 7.9 µM and 1700 nM.
Consider `CCN(Cc1nnnn1-c1ccc(Cl)c(C#N)c1)C1CCCCC1` [Example 13, 2-chloro-5-(5-((cyclohexyl(ethyl)amino)methyl)-1H-tetrazol-1-yl)benzonitrile], for which the concentration for half-maximal inhibition (IC50) in experiment [2] amounted to 80 nM; in experiment [3], 0.09 µM. In addition, in experiment [1], the 50% effective concentration (EC50) was 120 nM.
The like results for `CN(Cc1nnnn1-c1ccc(Cl)c(C#N)n1)C1CCCCC1` [Example 14, 3-chloro-6-(5-((cyclohexyl(methyl)amino)methyl)-1H-tetrazol-1-yl)picolinonitrile] were, in that order, 1100 nM, 2 µM and 1800 nM.
On the same counts, the results for `N#Cc1nc(-n2nnnc2CN(CC2CC2)C2CCCCC2)ccc1Cl` [Example 15, 3-chloro-6-(5-((cyclohexyl (cyclopropylmethyl)amino)methyl)-1H-tetrazol-1-yl) picolinonitrile] are 4300 nM, 3.1 µM and 2100 nM.
On the same counts, the results for `CCN(Cc1nnnn1-c1ccc(Cl)c(C#N)n1)C1CCCCC1` [Example 16, 3-chloro-6-(5-((cyclohexyl(ethyl)amino)methyl)-1H-tetrazol-1-yl)picolinonitrile] are 2600 nM, 2.7 µM and more than 10000 nM.
Regarding `C=CCN(Cc1nnnn1-c1ccc(Cl)c(C#N)n1)C1CCCCC1` [Example 17, 6-(5-((allyl (cyclohexyl)amino)methyl)-1H-tetrazol-1-yl)-3-chloropicolinonitrile], in experiment [1], the 50% effective concentration (EC50) was 470 nM.
For `CN(Cc1nnnn1-c1cccc(C(F)(F)F)c1)C1CCCCC1` [Example 18, N-methyl-N-((1-(3-(trifluoromethyl)phenyl)-1H-tetrazol-5-yl)methyl) cyclohexanamine], the values for the 50% inhibitory concentration (IC50) in experiment [2] and in experiment [3] were 11000 nM and 9.7 µM, respectively. In addition, the EC50 in experiment [1] was more than 5000 nM.
On the same counts, the results for `CN(Cc1nnnn1-c1cccc(F)c1)C1CCCCC1` [Example 19, N-((1-(3-fluorophenyl)-1H-tetrazol-5-yl)methyl)-N-methylcyclohexanamine] are 5800 nM, 5.2 µM and more than 5000 nM.
The like results for `CN(Cc1nnnn1-c1ccc(F)c(C#N)c1)C1CCCCC1` [Example 21, 5-(5-((cyclohexyl (methyl)amino)methyl)-1H-tetrazol-1-yl)-2-fluorobenzonitrile] were, in that order, 3100 nM, 3.7 µM and 1200 nM.
The like results for `CN(Cc1nnnn1-c1ccc(C(F)(F)F)nc1)C1CCCCC1` [Example 23, N-methyl-N-((1-(6-(trifluormethyl)pyridin-3-yl)-1H-tetrazol-5-yl)methyl) cyclohexanamine] were, in that order, 3600 nM, 6.5 µM and more than 5000 nM.
Take `COc1ccc(-n2nnnc2CN(C)C2CCCCC2)cc1C#N` [Example 24, 5-(5-((cyclohexyl(methyl)amino)methyl)-1H-tetrazol-1-yl)-2-methoxybenzonitrile]: the values for the half-maximal inhibitory concentration (IC50) in experiment [2] and in experiment [3] were 860 nM and 0.9 µM, respectively. Moreover, in experiment [1], the EC50 was determined as 1700 nM.
The like results for `Cc1ccc(-n2nnnc2CN(C)C2CCCCC2)cc1C#N` [Example 25, 5-(5-((cyclohexyl(methyl)amino)methyl)-1H-tetrazol-1-yl)-2-methylbenzonitrile] were, in that order, 410 nM, 0.14 µM and 350 nM.
As to `CN(Cc1nnnn1-c1cc(C#N)cc([N+](=O)[O-])c1)C1CCCCC1` [Example 27, 3-(5-((cyclohexyl(methyl)amino)methyl)-1H-tetrazol-1-yl)-5-nitrobenzonitrile], the EC50 in experiment [1] came out at 490 nM.
Regarding `CN(Cc1nnnn1-c1ccc(Cl)cc1)C1CCCCC1` [Example 29, N-((1-(4-chlorophenyl)-1H-tetrazol-5-yl)methyl)-N-methylcyclohexanamine], the half-maximal inhibitory concentration (IC50) was found to be 1700 nM in experiment [2] and 3.5 µM in experiment [3]. Also, the concentration giving a half-maximal response (EC50) in experiment [1] turned out to be 570 nM.
For the molecule `CN(Cc1nnnn1-c1ccc(Cl)cc1C#N)C1CCCCC1` [Example 30, 5-chloro-2-(5-((cyclohexyl(methyl)amino)methyl)-1H-tetrazol-1-yl)benzonitrile], the concentration giving a half-maximal response (EC50) in experiment [1] was more than 10000 nM.
In turn, `CCOC(=O)C1CCC(N(Cc2nnnn2-c2ccc(Cl)c(C#N)n2)C2CC2)CC1` (stereo not shown) [Example 56, ethyl 4-(((1-(5-chloro-6-cyanopyridin-2-yl)-1H-tetrazol-5-yl)methyl)(cyclopropyl)amino) cyclohexane-1-carboxylate] registered an IC50 in experiment [3] of 11 µM.
On the same count and under the same terms, as for `C[C@]1(O)CC[C@@H](N(Cc2nnnn2-c2ccc(Cl)c(C#N)n2)C2CC2)CC1` [Example 59, 3-chloro-6-(5-((cyclopropyl((1s,4s)-4-hydroxy-4-methylcyclohexyl)amino)methyl)-1H-tetrazol-1-yl)picolinonitrile], the figure is 180 µM; as for `CC(C)N(C)Cc1nnnn1-c1ccc(Cl)c(C#N)n1` [Example 60, 3-chloro-6-(5-((isopropyl(methyl)amino)methyl)-1H-tetrazol-1-yl)picolinonitrile], 67 µM; as for `CC(C)CN(C)Cc1nnnn1-c1ccc(Cl)c(C#N)n1` [Example 61, 3-chloro-6-(5-((isobutyl(methyl)amino)methyl)-1H-tetrazol-1-yl)picolinonitrile], 24 µM.
Still for that read-out and setting: next, `N#Cc1nc(-n2nnnc2CN(CCO)C2CCCCC2)ccc1Cl` [Example 62, 3-chloro-6-(5-((cyclohexyl(2-hydroxyethyl)amino)methyl)-1H-tetrazol-1-v) picolinonitrile]: 110 µM; `CCCCN(Cc1nnnn1-c1ccc(Cl)c(C#N)n1)C1CCCCC1` [Example 63, 6-(5-((butyl(cyclohexyl)amino)methyl)-1H-tetrazol-1-yl)-3-chloropicolinonitrile]: 15 µM.
